SMILES strings stand for the structures.

One data set has as its target T1, Bile acid receptor (Homo sapiens, UniProt Q96RI1).
T1 sequence (Q96RI1 whole entry): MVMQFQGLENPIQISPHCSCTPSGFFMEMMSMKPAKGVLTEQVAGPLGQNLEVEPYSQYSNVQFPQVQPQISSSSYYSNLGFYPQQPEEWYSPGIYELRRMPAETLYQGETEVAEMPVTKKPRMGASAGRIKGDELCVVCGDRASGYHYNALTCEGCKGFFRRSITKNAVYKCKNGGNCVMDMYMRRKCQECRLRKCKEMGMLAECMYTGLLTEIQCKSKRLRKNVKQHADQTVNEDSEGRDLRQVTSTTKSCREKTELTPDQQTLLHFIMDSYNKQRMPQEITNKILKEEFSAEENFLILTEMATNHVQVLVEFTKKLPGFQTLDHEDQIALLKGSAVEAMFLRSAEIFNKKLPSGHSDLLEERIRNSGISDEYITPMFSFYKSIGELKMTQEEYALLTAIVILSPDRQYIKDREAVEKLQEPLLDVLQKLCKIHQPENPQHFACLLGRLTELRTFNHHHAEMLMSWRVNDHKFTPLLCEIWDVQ
The data set can be described thus: Agonist activity at GST-tagged FXR-LBD using biotinylated-SRC-1 peptide as substrate preincubated with compound for 30 mins measured after 4 hrs. It is filed as functional.

Data set [1] has as its target T2, G-protein coupled bile acid receptor 1 (Homo sapiens, UniProt Q8TDU6).
T2 sequence (Q8TDU6 whole entry): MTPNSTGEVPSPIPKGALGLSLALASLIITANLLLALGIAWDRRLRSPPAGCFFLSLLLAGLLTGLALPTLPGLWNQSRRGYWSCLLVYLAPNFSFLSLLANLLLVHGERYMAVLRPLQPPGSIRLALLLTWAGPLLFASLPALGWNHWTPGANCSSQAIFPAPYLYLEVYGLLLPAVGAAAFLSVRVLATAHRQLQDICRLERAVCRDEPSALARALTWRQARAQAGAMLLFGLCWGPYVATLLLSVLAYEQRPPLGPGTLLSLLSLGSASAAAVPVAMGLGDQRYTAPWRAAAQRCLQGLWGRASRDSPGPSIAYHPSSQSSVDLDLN
Description: Agonist activity at TGR5 expressed in NCI-H716 cells assessed as cAMP level after 60 mins by FRET analysis. It is filed as functional, cell-based.

The nature of data set [2]: Critical micelle concentration of the compound in 0.15 M NaCl water solution. It is filed as physicochemical. Conditions: buffer; call rule not given here.
Data set [3] is described as follows: 1-Octanol/water partition coefficient, log P of the compound by conventional shake-flask method. It is filed as physicochemical.
A further data set concerns Liver. The data set can be described thus: Drug metabolism in mouse liver assessed as taurine conjugate formation. It is filed as ADME, tissue-based.
A further data set concerns the target Albumin (Homo sapiens, UniProt P02768). Description: Binding affinity to albumin by equilibrium dialysis. It is filed as ADME. The arrangement: concentration or dose not given beside the values. Particulars: isolated protein.
A short description of data set [4]: Aqueous solubility of the compound in 0.1 M HCl water at […] by HPLC-ES-MS/MS. It is filed as physicochemical.
Setting [5] is: 1-octanol/water, read-out: logP.

Albumin, sequence (P02768 whole entry): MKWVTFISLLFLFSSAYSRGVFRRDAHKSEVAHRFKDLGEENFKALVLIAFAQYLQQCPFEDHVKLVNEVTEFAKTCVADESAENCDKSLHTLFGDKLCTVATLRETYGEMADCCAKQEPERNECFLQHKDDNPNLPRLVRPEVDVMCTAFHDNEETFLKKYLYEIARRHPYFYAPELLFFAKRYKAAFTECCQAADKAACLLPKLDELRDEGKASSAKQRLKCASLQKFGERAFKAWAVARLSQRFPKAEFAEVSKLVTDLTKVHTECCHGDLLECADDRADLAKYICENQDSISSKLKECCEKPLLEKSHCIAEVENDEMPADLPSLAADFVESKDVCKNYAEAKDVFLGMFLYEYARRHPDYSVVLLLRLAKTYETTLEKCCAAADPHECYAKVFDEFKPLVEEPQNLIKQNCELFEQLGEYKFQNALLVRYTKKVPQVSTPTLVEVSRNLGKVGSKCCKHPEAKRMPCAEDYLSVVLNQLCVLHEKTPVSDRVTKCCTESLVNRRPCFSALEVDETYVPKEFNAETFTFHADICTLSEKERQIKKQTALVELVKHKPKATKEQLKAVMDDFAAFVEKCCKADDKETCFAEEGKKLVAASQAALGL

For the compound `C[C@H](CCC(=O)O)[C@H]1[C@@H](O)C[C@H]2[C@@H]3[C@H](O)C[C@@H]4C[C@H](O)CC[C@]4(C)[C@H]3CC[C@]12C`, the EC50 on Bile acid receptor turned out to be 55 µM; in data set [1], 25 µM.
On the same counts, the results for `CC[C@H]1[C@@H](O)[C@@H]2[C@H](CC[C@]3(C)[C@@H]([C@H](C)CCC(=O)O)[C@H](O)C[C@@H]23)[C@@]2(C)CC[C@@H](O)C[C@@H]12` are 22 µM and 87 µM.
In the case of `CC[C@H]1[C@@H](O)[C@@H]2[C@H](CC[C@]3(C)[C@@H]([C@H](C)CCC(=O)[O-])[C@@H](O)C[C@@H]23)[C@@]2(C)CC[C@@H](O)C[C@@H]12.[Na+]`, the CMC in data set [2] turned out to be 5.9 mM. The lipophilicity (logP) in data set [3] (setting [5]) was 1.6. Further, the Drug metabolism entry in the data set on Liver is “Active”. Further, the Activity at Albumin turned out to be 83%. Besides, the solubility in data set [4] came out at 120 µM. The figures for the EC50 (on Bile acid receptor; in data set [1]) were 11.5 µM and 0.65 µM, respectively.
For the compound `CC[C@H]1[C@@H](O)[C@@H]2[C@H](C[C@H](O)[C@]3(C)[C@@H]([C@H](C)C[C@H](C)C(=O)O)CC[C@@H]23)[C@@]2(C)CC[C@@H](O)C[C@@H]12`, in data set [2], the CMC was 2 mM. For the same compound, the lipophilicity (logP) in data set [3] (setting [5]) worked out at 1.4. The compound also had an Activity at Albumin of 62%.
As for `C[C@H](CCC(=O)[O-])[C@H]1[C@H](O)C[C@H]2[C@@H]3[C@H](O)C[C@@H]4C[C@H](O)CC[C@]4(C)[C@H]3CC[C@]12C.[Na+]` [AVICHOLIC ACID SODIUM SALT], the CMC in data set [2] was 10 mM. Also, the logP in data set [3] (setting [5]) was found to be 1.1. The compound also yielded an Activity at Albumin of 58%. The compound further gave a solubility in data set [4] of 188 µM. In addition, the 50% effective concentration (EC50) is greater than 100 µM at Bile acid receptor and 160 µM in data set [1].
Turning to `C[C@H](CCC(=O)O)[C@H]1CC[C@H]2[C@@H]3[C@H](O)C[C@@H]4C[C@H](O)CC[C@]4(C)[C@H]3CC[C@]12C` [CHENODIOL], the CMC in data set [2] was found to be 3 mM. The logP in data set [3] (octanol/water) stood at 2.2. The Activity on Albumin was determined as 93%.
`C[C@H](CCC(=O)O)[C@H]1CC[C@H]2[C@@H]3[C@H](O)C[C@@H]4C[C@H](O)CC[C@]4(C)[C@H]3C[C@H](O)[C@]12C` [CHOLIC ACID] yielded a CMC in data set [2] of 9.2 mM. In addition, at Albumin, the Activity worked out at 50%.
